We go through 1 molecule from patent publication US20060205788A1, “Compounds having activity at 5ht2c receptor and uses thereof” (priority 2003, published 2006).

`COc1ccc(C2=CCN(c3ccc(Cl)c(Cl)c3)C2=O)cc1OCCN1CCCCC1` returned a melting point of 98 to 99 °C.
